Entries after “also recorded” stand apart in the source; their conditions may differ. Like-named read-outs stand apart in the source and are kept apart here.
Columns and labels:
A549 cells = experiment: MTT cytotoxicity, lung cancer cells A549; assay type: cell-based, human
Outline: (§1)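 Cells exposed to compounds at 0.1, 1, 5 and 10 μM (DMSO vehicle-matched controls) for 48 and/or 72 h, then MTT 4 h; formazan in DMSO read at 570/630 nm. Viability as % of control; IC50 from dose-response curves. Healthy cells tested at 10-fold the cancer-cell IC50 concentration.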

HT-29 cells = experiment: MTT cytotoxicity, colon cancer cells HT-29; assay type: cell-based, human; settings: MTT
Outline: (§2)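 Cells were seeded at 5000 per well and treated next day with compound at 0.1, 1, 5 and 10 μM (final) for 48 and/or 72 h, with matched DMSO controls. MTT was added for 4 h and formazan was dissolved in DMSO and read at 570/630 nm. % viability against control gave IC50 from dose-response curves.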

CAKI-1 cells = experiment: MTT cytotoxicity, kidney cancer cells CAKI-1; assay type: cell-based, human
Outline: as §1

human cancer cells = experiment: MTT cell viability, human cancer cells overall; assay type: cell-based; settings: cell line as discussed at the place
Description: The cytotoxicity, general tyrosine kinase inhibitory effects and cell death (apoptosis/necrosis) assays of 1-benzyl-3-(1H-indol-3-ylmethylidene)-1,3-dihydro-2H-indol-2-one derivatives (Formula 5) of the present invention are studied by the following methods. […] HUVEC (human umbilical vein endothelial cell), MCF-10F (human breast epithelial cell) and Beas2b (human lung bronchial epithelial cell) cell lines have been used as healthy control cells in MTT experiments.
Beas2b (human lung bronchiole epithelial cell) and HEK293 (renal tubule epithelium) cells used as normal cell lines were cultured in RPMI medium, and HUVEC (human umbilical cord endothelial cells) and MCF-10F (human breast epithelial cell) cells are cultured in DMEM medium containing 100 µg/ml penicillin/streptomycin. The cells, which covered 70% of the culture flask, are washed with phosphate buffer and then removed from the surface of the flask by application of trypsin-ethylenediamine tetraacetic acid (Trypsin-EDTA; 0.25%) solution, passaged, counted and seeded on appropriate plates before each experiment. Cells are treated with a total of 45 2-indolinone compounds (5) at concentrations of 0.1, 1, 5 and 10 μM. Stock compounds are prepared in 1 ml dimethylsulfoxide (DMSO) and 4 different dilutions were prepared with medium and performed to the cells. Control group cells are treated with DMSO at a similar concentration to the experimental groups.
MTT (3-(4,5-dimethylthiazol-2-yl)-2,5-diphenyl-2H-tetrazolium bromide) colorimetric assay provides quantitation of viable cells with ongoing mitochondrial activity in culture medium. According to the standard procedure in cell culture conditions, cells are maintained in RPMI-1640 and DMEM culture media containing 10% FBS and 1% penicillin/streptomycin. The trypan blue test is used for cell counts.
The effects of 45 2-indolinone compounds (5) on cell viability in all cancer cell lines are investigated by MTT assay. Cells are seeded in a 96-well flat bottom plate with 5000 cells in each well and 2-indolinone compounds (5) at concentrations of 0.1, 1, 5 and 10 μM are performed to the cells the next day. After 48 and/or 72 hours following treatment with 2-indolinone compounds, 50 μl of the supernatant is slowly discarded (as it was acid medium) and MTT at a concentration of 5 mg/ml is added to each well in a volume of 10 μl. After incubation for 4 hours, the formazan crystals formed in the wells are dissolved by adding 100 μl DMSO and the optical density is read at 570 nm test wavelength and 630 nm reference wavelength. Cell viability is expressed as % cell viability by comparing the absorbance of control and test wells. IC50 value is calculated from the dose-response curves prepared for each compound. In addition, the possible DMSO effect is eliminated by preparing negative control wells compatible with the amount of DMSO contained in the compounds. To understand the reaction of the compounds with MTT, cell-free (MTT+compounds) negative controls are prepared at the concentrations used (Mosmann, 1983). […] The absorbance values obtained are compared to the control and statistically evaluated by unpaired t-test using “Graphpad Prism 5.04” software. “P<0.05” is accepted as significant. When evaluating cytotoxic effects, the present inventors aim for the inventive compounds to be effective in cancer cells and ineffective in healthy cells. […]

A498 cells = experiment: MTT cytotoxicity, kidney cancer cells A498; assay type: cell-based, human; settings: MTT
Outline: as §1

MCF-7 cells = experiment: MTT cytotoxicity, breast cancer cells MCF-7; assay type: cell-based, human; settings: for IC50: MTT
Outline: as §1

MDA-MB-231 cells = experiment: MTT cytotoxicity, breast cancer cells MDA-MB-231; assay type: cell-based, human; settings: for IC50: MTT, no * mark (incubation time not given)
Outline: as §1

HUVEC cells = experiment: MTT cytotoxicity, healthy cells HUVEC; assay type: cell-based, human; settings: for Selectivite Index (SI), HUVEC (Table 1): HUVEC vs breast or kidney cancer cells; for IC50: MTT
Outline: as §1

MIAPaCa-2 cells [1] = experiment: MTT cytotoxicity, pancreas cancer cells MIAPaCa-2; assay type: cell-based, human
Outline: as §2

HCT-116 cells = experiment: MTT cytotoxicity, colon cancer cells HCT-116; assay type: cell-based, human
Outline: as §2

MCF-10F/Beas2b cells = experiment: MTT cytotoxicity, healthy cells MCF-10F/Beas2b; assay type: cell-based, human; settings: for Selectivite Index (SI), MCF-10F/Beas2b (Table 1): MCF-10F/Beas2b vs breast or kidney cancer cells; for IC50: MTT
Outline: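 Viability was quantified by MTT reduction following 48 and/or 72 h compound exposure at four concentrations (0.1, 1, 5, 10 μM). Values are percentages of DMSO-treated controls, with IC50 fitted from dose-response data.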

[2] = test system: pancreas and kidney cancer cells; experiment: Apoptosis detection, Annexin V/PI flow cytometry, pancreas and kidney cancer cells; assay type: cell-based, human
Description: (§3) After incubation with 2-indolinone compounds (IC50 μM concentration; 48 and/or 72 hours), cells are washed twice with PBS and the cell pellet is suspended in Annexin V binding buffer. After this incubation, cells are incubated with FITC-conjugated Annexin V and propidium iodine staining solution for 15 minutes in the dark and at room temperature. Then, cells are analyzed by flow cytometry (Beckman coulter, Navios) (Wlodkowic, D., Skommer, J, Darzynkiewicz, Z. 2009. Flow cytometry-based apoptosis detection, Methods Mol Biol., 559, 1-14).
Whether the 2-indolinone derivatives (5) with the highest selectivity index and general TKI activity stimulated apoptosis and necrosis is determined by Annexin V and propidium iodine staining in pancreas and kidney cancer cells. Annexin V/PI flow cytometry apoptosis values of the tested compounds Y1, Y2, Y3, Y4, Y8 and Y14 are found to be 40% and above in correlation with MTT results. The apoptosis rates of the control groups and the substances are analyzed by t test in GraphPad version 9.0.

[3] = test system: general tyrosine kinase activity in MIA PaCa-2 pancreas cancer cells; experiment: General tyrosine kinase activity (ELISA) in MIAPaCa-2 cells; assay type: cell-based, human; settings: 72 hours, IC50 concentration
Description: Takara Universal Tyrosine Kinase Assay Kit is used to determine the effects of 11 2-indolinone compounds (Y1, Y2, Y3, Y4, Y5, Y8, […], […], Y21, Y23, 20C, 22C) on general tyrosine kinase activity in cancer cells. Cells are seeded in 6-well plates (4.10^5 cells/well) and the IC50 concentration of each selected molecule is performed to the cells for 48 or 72 hours. Cells in the control group are incubated with medium only. At the end of the incubation period, the cells in each well are washed with PBS and cells are removed from the wells using a cell scraper via 1 ml of the extraction buffer in the kit. The cell lysate is transferred to ependorf tubes and centrifuged at 10.000 g for 10 minutes at +4° C. and the supernatant is used as a sample for activity determination. After the extracts obtained from the control and experimental groups are diluted 1:25, 40 μl extracts is transferred to two wells in the 96-well plate in the kit. In addition, the standard solution in the kit is diluted according to the kit instructions and each concentration is transferred 40 μl into three wells. 10 μl of 40 mM ATP-2Na solution is added to all wells and the plate is incubated at 37° C. for 30 minutes. After incubation, all wells are washed 4 times with wash buffer. 100 μl of blocking solution is added to each well and incubated again at 37° C. for 30 minutes. After incubation, the liquid in the wells is discarded and 50 μl of anti-phosphotyrosine-HRP solution is added to each well and incubated at 37° C. for 30 minutes. The wells are washed again four times with wash buffer and 100 μl of HRP-substrate solution (TMBZ) is added to each well and incubated at 37° C. for 15 minutes. The reaction is finished by adding 100 μl of stop solution to each well and the optical density in each well is measured at 405 nm with a microplate reader (BioTek, USA). The tyrosine kinase activity in each sample is calculated from the standard curve obtained from the absorbance values of the standard solutions with the kit (Chan W Y, Lau P M, Yeung K W, Kong S K. The second generation tyrosine kinase inhibitor dasatinib induced eryptosis in human erythrocytes—An in vitro study. Toxicol Lett. 2018; 295:10-21). This activity is normalized compared to the control group by dividing by the amount of protein in each sample.
The effects of 11 2-indolinone compounds (Y1, Y2, Y3, Y4, Y5, Y8, Y14, Y21, Y23, 20C and 22C) having the structure of formula (5), which are prominent with their cytotoxicity in A498, MIAPaCa-2 and HCT-116 cancer cell lines and nontoxic properties in healthy cells, on general tyrosine kinase activity in cancer cells are determined.

MIAPaCa-2 cells [4] = experiment: Apoptosis/necrosis detection, Annexin V/PI flow cytometry, MiaPaca-2; assay type: cell-based, human
Description: as §3

[5] = no * mark (incubation time not specified)
[6] = read-out: IC50, MDA-MB-231 (breast)
[7] = MTT, no * mark (incubation time not specified)

| Compound | IC50 (A549 cells; [5]) [µM] | IC50 (HT-29 cells; [5]) [µM] | IC50 (CAKI-1 cells; [5]) [µM] | potency/selectivity compared with sunitinib malate (human cancer cells) | IC50 (A498 cells; [5]) [µM] | IC50 (MCF-7 cells; [5]) [µM] | IC50 (MDA-MB-231 cells; [6]) [µM] | Selectivite Index (SI), HUVEC (Table 1) (HUVEC cells; cancer line not given) | IC50 (HUVEC cells; [5]) [µM] | IC50 (MIAPaCa-2 cells [1]; [7]) [µM] | IC50 (HCT-116 cells; [5]) [µM] | Selectivite Index (SI), MCF-10F/Beas2b (Table 1) (MCF-10F/Beas2b cells; cancer line not given) | other results |
| --- | --- | --- | --- | --- | --- | --- | --- | --- | --- | --- | --- | --- | --- |
| O=C1/C(=C\c2c[nH]c3ccccc23)c2cccc(Cl)c2N1Cc1ccccc1 [22C] | > 10 | > 10 | 2.49 | much more potent and have higher SI values than the reference compound sunitinib malate | > 10 | 0.57 | 8.4 | > 17.54 | > 10 | > 10 | > 10 | > 17.54 | selectivity index (SI) (MCF-7 cells; MCF-10F vs MCF-7): > 17 |
| O=C1/C(=C\c2c[nH]c3ccccc23)c2cc(Cl)ccc2N1Cc1ccc(F)cc1 [17C] |  |  |  | more potent than sunitinib malate |  |  |  |  |  |  |  |  | IC50 (A549 cells; Homo sapiens, A549, no * mark (incubation time not given)): 1.11 µM; IC50 (HT-29 cells; Homo sapiens, HT-29, no * mark (incubation time not given)): 2.07 µM; IC50 (CAKI-1 cells; Homo sapiens, CAKI-1, *: effective 72 hours after incubation): 4.62 µM; IC50 (A498 cells; Homo sapiens, A498, 72 h, *: effective 72 hours after incubation): 0.77 µM; IC50 (MCF-7 cells; Homo sapiens, MCF7, *: effective 72 hours after incubation): 4.76 µM; IC50 (MDA-MB-231 cells; Homo sapiens, MDA-MB-231, read-out: IC50, MDA-MB-231 (breast)): > 10 µM; IC50 (HUVEC cells; Homo sapiens, HUVEC, no * mark (incubation time not given)): 1.24 µM; IC50 (MIAPaCa-2 cells [1]; Homo sapiens, MIA PaCa-2, MTT, no * mark (incubation time not given)): 1.32 µM; IC50 (HCT-116 cells; Homo sapiens, HCT-116, no * mark (incubation time not given)): 0.93 µM; IC50 (MCF-10F/Beas2b cells; Homo sapiens, *: effective 72 hours after incubation): 2.66 µM; IC50 (MCF-10F/Beas2b cells; Homo sapiens, no * mark (incubation time not given)): 2.66 µM; cytotoxicity in healthy cells (MCF-10F/Beas2b cells; healthy cells): high in healthy cells |
| Cc1cccc(CN2C(=O)/C(=C\c3c[nH]c4ccccc34)c3cccc(Cl)c32)c1 [27C] | > 10 | > 10 | > 10 | much more potent and have higher SI values than the reference compound sunitinib malate | 2.4 | 3.67 | 0.81 | 1.28 |  | > 10 | > 10 | > 12.34 | selectivity index (SI) (MDA-MB-231 cells; MCF-10F vs MDA-MB-231): > 12; IC50 (HUVEC cells; *: effective 72 hours after incubation): 1.04 µM |
| Cn1cc(/C=C2\C(=O)N(Cc3ccccc3)c3ccc(OC(F)(F)F)cc32)c2ccccc21 [Y14] | > 10 | > 10 | > 10 |  | > 10 | 6.09 | > 10 |  | > 10 | 0.15 | > 10 |  | Annexin V/PI flow cytometry apoptosis values [2]: ≥ 40%; general tyrosine kinase activity compared to control [3]: significantly decreased; also recorded: decreased the general tyrosine kinase activity; Selectivite Index, HUVEC (Table 2) (HUVEC cells; HUVEC vs colon or pancreas cancer cells, cancer line not given): > 66.66; necrosis compared to control (MIAPaCa-2 cells [4]; MiaPaca-2): did not cause necrosis; apoptosis (early and late) compared to control (MIAPaCa-2 cells [4]; MiaPaca-2, IC50 values): increase in apoptosis at IC50 values was statistically significant; Selectivite Index, MCF-10F/Beas2b (Table 2) (MCF-10F/Beas2b cells; MCF-10F/Beas2b vs colon or pancreas cancer cells, cancer line not given): 45.06; IC50 (MCF-10F/Beas2b cells; [5]): 6.76 µM |

From US20260335282A1, “NOVEL 3-ARYLIDENE-2-INDOLINONE DERIVATIVES FOR THERAPEUTIC USE” (ISTANBUL UNIVERSITESI REKTORLUGU, priority 2022, published 2026)
